Source: the METLIN SMRT retention time set (Domingo-Almenara et al. 2019)

Assay: gradient 5% acetonitrile 3 min, to 50% in 2 min, to 85% in 15 min, held 3 min, 100 µL/min
Conditions: column: Zorbax Extend-C18 2.1 x 50 mm; eluents: water / acetonitrile, 0.1% formic acid
Outline: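 Pure standards were analyzed in mixtures of ~100 molecules using HPLC coupled to a quadrupole time-of-flight mass spectrometer, in both positive and negative ionization mode. Separation used a Zorbax Extend-C18 column (2.1 × 50 mm, 1.8 μm) at 100 μL/min, with water and acetonitrile each containing 0.1% formic acid. Dead and dwell volumes were 40 μL and 900 μL, and data were collected over 3 months. Retention time was read from computationally picked adduct peaks, each inspected manually.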

In order of rising RP-LC retention time:
1. COc1ccc(CN2CCC3(CC2)CC(O)CCO3)cc1 (centres undefined)  564 s
2. CC(=O)N(C)CC(=O)N1CCN(c2cc(C)nc(Nc3ccc(C)cc3)n2)CC1  564 s
3. COC[C@@H]1CN(C(=O)c2ccc(C#N)cc2)C[C@H]1C(N)=O  571 s
4. O=C(CCCN1C(=O)c2cccc3cccc(c23)C1=O)Nc1cccnc1  571 s
5. CN1CCc2cc(C(CNS(=O)(=O)c3ccccc3F)N3CCCC3)ccc21 (centres undefined)  573 s
6. COCCCNC(=O)C1CCN(c2nc3ccc(-c4cccnc4)nc3s2)CC1  585 s
7. CN1CCC(N2CCN(c3ncccc3-c3nnc(-c4ccc(Cl)cc4)o3)CC2)CC1  586 s
8. O=C(NCCc1ccccc1)N(C1CCOCC1)C1CCN(Cc2cccc(F)c2)CC1  604 s
9. CC(C)Cn1cc(C(=O)O)c(S(=O)(=O)N2CCN(C(C)C)CC2)n1  609 s
10. COc1ccccc1N1C(=O)C2ON(c3ccccc3)C(c3cccc([N+](=O)[O-])c3)C2C1=O (centres undefined)  615 s
11. COc1ccc(NC(=O)C2CCN(c3cncnc3N3CCCC3)CC2)cc1OC  616 s
12. O=C(c1cccc(Cl)c1)N(CCS(=O)(=O)N1CCNCC1)CC1CCCO1 (centres undefined)  618 s
13. Cc1cnc(Nc2ccc(OCCN3CCCC3)cc2)nc1Nc1cccc(S(=O)(=O)NC(C)(C)C)c1  619 s
14. CCCNC(=O)C1CC(=O)N(c2ccc3c(c2)CCN3C(C)=O)C1 (centres undefined)  621 s
15. CCOC(=O)c1c(C)c(CCC(=O)NCCN2CCCCC2)n(C)c1C  624 s
16. COc1ccc(CC(=O)NCc2c(C)nc3sc(C)nn23)cc1Cl  629 s
17. O=C(CCc1ccccc1)NC1CCN(c2nnc3ccccn23)CC1  633 s
18. CC1CCCCN1CCCNC(=O)CCCn1c(=O)c2cccn2c2ccc(F)cc21 (centres undefined)  639 s
19. CCNC(=O)Nc1ccc(OCC(=O)NC(C)c2ccc(OC)c(OC)c2)nc1 (centres undefined)  644 s
20. CCSc1nc2c(s1)c(=O)n(-c1ccccc1)c(=O)n2CC(=O)NC1CCCCC1  645 s
21. COc1cc(=O)n2c(c1C(=O)Nc1ccc3c(c1)OCCO3)CCCC2  647 s
22. c1ccc(Nc2c(-c3ccc(N4CCOCC4)cc3)nc3ccccn23)cc1  670 s
23. CCCCNC(=O)C(C)Sc1nc2nc(C)cc(C)n2n1 (centres undefined)  679 s
24. CCC1CCCCN1C(=O)c1cnc2nc(C)ccc2c1Nc1ccc(F)c(C)c1 (centres undefined)  680 s
25. CCC1CCCCN1C(=O)c1cnc2nc(C)ccc2c1Nc1ccc(C(=O)OC)cc1 (centres undefined)  681 s
26. CCOc1ccccc1CNc1nc2ccncc2n(CC)c1=O  683 s
27. CCOc1ccc2c(n1)CCN(C(=O)C1(c3ccc(OC)cc3)CC1)C2  683 s
28. Cc1cc(NC(=O)N2CCC(n3cnnc3C3CC3)C2)ccc1Br (centres undefined)  692 s
29. O=C(NCc1ccc(F)cc1F)C1CCCN(c2ncnc3nn(-c4ccc(F)cc4)cc23)C1 (centres undefined)  700 s
30. Cc1ccc(NC(=O)C2CCN(S(=O)(=O)c3cc(C(=O)N4CCC(C)CC4)n(C)c3)CC2)nc1  705 s
31. Cc1ccc(-c2c(N3CCN(c4ccccn4)CC3)c(=O)c2=O)cc1C  708 s
32. Cc1cc(C)n2nc(SCC(=O)N(C)Cc3ccccc3)nc2n1  710 s
33. COc1ccc(NC(=O)C2CCN(S(=O)(=O)c3cc4c(cc3C)NC(=O)CO4)CC2)cc1OC  712 s
34. Cn1nc(C(=O)N2CCOCC2)c2c1CCN(C(=O)Nc1ccc(Br)cc1F)C2  713 s
35. CC(C)(C)c1noc(-c2ccnc(-n3cnc(C(=O)NCc4ccccc4)c3)c2)n1  715 s
36. COc1ccc(OC)c2sc(NC(=O)c3cccc(N4C(=O)CCC4=O)c3)nc12  716 s
37. Cc1cc(=O)n(CC(=O)NCc2ccc3c(c2)OCO3)c(N2CCc3ccccc3C2)n1  718 s
38. O=C1CC(c2cc(F)cc(F)c2)Cc2nc(N3CCN(c4ccc(F)cc4)CC3)ncc21 (centres undefined)  719 s
39. CCC1CCCCN1C(=O)c1cnc2nc(C)ccc2c1Nc1cccc(C)c1C (centres undefined)  720 s
40. CC1(c2ccccc2)CC(C)(C)N(C(=O)CN2CCOCC2)c2ccccc21 (centres undefined)  744 s
41. Cc1ccc(NC(=O)CN2C(=O)NC3(CCCCC3)C2=O)cc1  760 s
42. O=C(c1ccc(OC(F)(F)F)cc1)N1C[C@@H]2C[C@H]1C[C@@H]2NS(=O)(=O)c1cccnc1  761 s
43. O=C(Cn1cnc2nc3c(cc2c1=O)CCCC3)Nc1ccc(Cl)cc1  761 s
44. Cc1ccc(NC(=O)N2CCCN(c3ccc(=O)n(-c4ccccc4)n3)CC2)c(C)c1  763 s
45. CCOC(=O)CNC(=O)NCc1cccn1Cc1ccccc1F  772 s
46. CC1CCN(c2cncnc2-n2cc(NC(=O)Nc3cccc(F)c3)cn2)CC1  772 s
47. CCC(=O)N1CCc2c(C(=O)N3CCN(c4ccc(OC)cc4)CC3)cccc21  778 s
48. Cc1cc(Cl)ccc1NC(=O)NCC1CCOCC1  788 s
49. CN(C)C(=O)CN1CCN(c2ccccc2)CC1  792 s
50. COc1ccc(-c2nc3ncccn3c2Nc2cc(C)ccc2C)cc1  792 s
51. O=C(Cn1nc2nc(N3CCCCCC3)ccn2c1=O)Nc1cc(F)cc(F)c1  798 s
52. Cc1cc(C(=O)NC2CCCCCC2)nn1C  799 s
53. O=C(c1ccc(Br)o1)N1c2ccccc2CC1c1nnc(C2CCOCC2)o1 (centres undefined)  804 s
54. COc1cc(=O)c(C(=O)Nc2cccc(SC)c2)nn1-c1cccc(F)c1  805 s
55. O=C(Nc1cnn(-c2ncc(N3CCCCC3)cn2)c1)C1CCCC1  807 s
56. CC(C)CNC(=O)C1CCN(S(C)(=O)=O)c2cc(Cl)ccc2O1 (centres undefined)  809 s
57. COCCNC(=O)C1CCCN(c2nccnc2Sc2ccccc2)C1 (centres undefined)  810 s
58. COc1ccc(CCNC(=O)c2nnc(-c3ccc(S(=O)(=O)N4CCCC4)cc3)o2)cc1OC  824 s
59. COc1ccccc1N1CCN(S(=O)(=O)CCNC(=O)CCCc2ccccc2)CC1  832 s
60. Cc1cc(OCC(=O)N(Cc2ccc(N(C)C)cc2)C2CCS(=O)(=O)C2)ccc1Cl (centres undefined)  839 s
61. CC1=NS(=O)(=O)N(C)C=C1C(=O)OCc1ccc(C#N)cc1  842 s
62. Cc1ccc(-c2csc(Nc3cc(C)ccn3)n2)cc1  843 s
63. Cc1[nH]c(C(=O)Nc2ccc(F)cc2)c(C)c1S(=O)(=O)N1CCCC1  845 s
64. COc1ccc(C2(C(=O)NCc3nn(C)c4c3CN(C)CC4)CC2)cc1  865 s
65. Cc1nnc2ccc(-c3noc(-c4ccc(F)cc4)n3)cn12  865 s
66. COc1ccc(-c2csc(Nc3ccc(C(=O)O)cc3)n2)cc1  876 s
67. CCc1ccc2c(c1)cc(S(=O)(=O)c1ccccc1)c(=O)n2CC(=O)NC(C)C  882 s
68. O=C(CCC1CCCC1)Nc1ccc(N2CCN(C3CCCC3)C2=O)nc1  884 s
69. Cc1sc(-c2nnc(C3CC3)o2)cc1NC(=O)c1cccc(N(C)C)c1  896 s
70. Cc1ccc(NC(=O)Cn2c(=O)n(-c3cccc(C)c3)c(=O)c3c2cc(C)n3C)cc1  899 s
71. CSc1ccc(Cl)c(C(=O)Nc2cccn3c(C4CCC4)nnc23)c1  911 s
72. COc1ccc(Cl)cc1NC(=O)Cn1nc2c(Oc3ccccc3C)nccn2c1=O  930 s
73. CCOC(=O)c1nc(N(CC)c2ccc(OC)cc2)c2ccccc2n1  941 s
74. COc1cccc(CNC(=O)C2(C)CCCN(C(=O)Nc3ccc(Cl)cc3)C2)c1 (centres undefined)  942 s
75. Cc1ccc(-n2cc3c(c(C(=O)Nc4ccc(C)cn4)c2=O)CC(C)(C)CC3=O)cc1  961 s
76. COc1ccccc1-c1nc(-c2ccc3nnn(C(C)C)c3c2)no1  962 s
77. C[C@@H]1CN(C(=O)c2cccs2)C[C@H]1c1nc(-c2ccccc2)no1  965 s
78. O=C(CCc1nc(-c2ccc(N3CCCC3)cc2)no1)NCc1ccc2c(c1)OCO2  979 s
79. COc1ccccc1NC(=O)N1CCCC1c1nc(-c2ccccc2)no1 (centres undefined)  1010 s
80. Cc1ccccc1-c1noc(C2CCCN2C(=O)CNS(=O)(=O)c2ccc(Cl)cc2)n1 (centres undefined)  1020 s
81. c1ccc2c(OCc3nc4c5ccccc5ncn4n3)cccc2c1  1040 s
82. COc1cccc(-c2cc3c(=O)n(CC(O)c4ccc(C(C)C)cc4)ccn3n2)c1 (centres undefined)  1060 s
83. O=C1CC(c2noc(-c3cc(F)cc(F)c3)n2)CN1c1ccc(F)c(Cl)c1 (centres undefined)  1110 s
84. CCc1ccc(-c2noc(CN3C(=O)COc4ccccc43)n2)cc1  1120 s
85. Cc1ccc(Nc2nc(-c3ccc(I)cc3)cs2)cc1C  1120 s
86. Cc1ccc(C)c(CN2CCCN(CC(=O)NC(C)CCc3ccccc3)S2(=O)=O)c1 (centres undefined)  1140 s
87. O=c1c2sccc2n(Cc2nc(-c3ccc(Cl)c(F)c3)no2)c(=O)n1Cc1ccccc1  1210 s
88. CCOc1ccc(-c2nc(-c3ccc4c(c3)N(CC)C(=O)CO4)no2)cc1  1240 s
89. Clc1ccc(-c2csc(Nc3ccccc3)n2)cc1Cl  1300 s
